Assay results reported in ChEMBL document CHEMBL4002634, “Benzoflavones as cholesterol esterase inhibitors: Synthesis, biological evaluation and docking studies” (Bioorg Med Chem Lett, 2017).
Active and inactive are the calls of the source. The rule behind the calls is not given here.

Key:
[1] = biological target: T1, Carboxylic ester hydrolase (Sus scrofa) (UniProt A0A286ZKB1); assay: Inhibition of porcine cholesterol esterase at 1 nM using para-nitrophenyl butyrate as substrate after 5 mins in presence of sodium taurocholate by spectrophotometric method relative to control
T1 sequence (whole entry): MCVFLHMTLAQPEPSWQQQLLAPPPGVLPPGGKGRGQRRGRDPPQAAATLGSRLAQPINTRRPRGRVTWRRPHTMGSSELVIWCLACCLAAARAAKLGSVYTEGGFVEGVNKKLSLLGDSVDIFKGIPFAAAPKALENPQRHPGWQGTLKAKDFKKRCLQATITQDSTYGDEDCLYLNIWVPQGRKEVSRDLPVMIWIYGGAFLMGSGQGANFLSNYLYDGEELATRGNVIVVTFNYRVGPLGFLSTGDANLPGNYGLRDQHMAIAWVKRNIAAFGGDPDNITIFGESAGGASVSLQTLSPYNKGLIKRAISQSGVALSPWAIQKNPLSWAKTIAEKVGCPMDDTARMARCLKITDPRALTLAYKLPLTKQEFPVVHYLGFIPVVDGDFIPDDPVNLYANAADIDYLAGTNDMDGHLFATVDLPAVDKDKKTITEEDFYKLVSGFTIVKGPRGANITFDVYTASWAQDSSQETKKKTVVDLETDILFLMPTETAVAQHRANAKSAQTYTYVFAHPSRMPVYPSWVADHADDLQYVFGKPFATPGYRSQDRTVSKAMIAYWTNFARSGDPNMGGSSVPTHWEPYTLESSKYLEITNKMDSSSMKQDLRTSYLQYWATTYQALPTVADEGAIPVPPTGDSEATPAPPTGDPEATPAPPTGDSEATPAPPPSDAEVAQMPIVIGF

[2] = biological target: T1, Carboxylic ester hydrolase (Sus scrofa); assay: Inhibition of porcine cholesterol esterase at 25 nM using para-nitrophenyl butyrate as substrate after 5 mins in presence of sodium taurocholate by spectrophotometric method relative to control
[3] = biological target: T1, Carboxylic ester hydrolase (Sus scrofa); assay: Inhibition of porcine cholesterol esterase at 10 nM using para-nitrophenyl butyrate as substrate after 5 mins in presence of sodium taurocholate by spectrophotometric method relative to control
[4] = biological target: T1, Carboxylic ester hydrolase (Sus scrofa); assay: Inhibition of porcine cholesterol esterase at 50 nM using para-nitrophenyl butyrate as substrate after 5 mins in presence of sodium taurocholate by spectrophotometric method relative to control
[5] = biological target: T1, Carboxylic ester hydrolase (Sus scrofa); assay: Inhibition of porcine cholesterol esterase at 5 nM using para-nitrophenyl butyrate as substrate after 5 mins in presence of sodium taurocholate by spectrophotometric method relative to control
[6] = biological target: T2, Carboxylic ester hydrolase (Sus scrofa, UniProt A0A286ZKB1); assay: Inhibition of porcine cholesterol esterase using para-nitrophenyl butyrate as substrate after 5 mins in presence of sodium taurocholate by spectrophotometric method
T2 sequence (A0A286ZKB1 whole entry): T1 sequence (whole entry)

[7] = biological target: T1, Carboxylic ester hydrolase (Sus scrofa); assay: Mixed-type inhibition of porcine cholesterol esterase at 1 to 50 nM using para-nitrophenyl butyrate as substrate after 5 mins in presence of sodium taurocholate by Line-weaver-Burk plot analysis

O=c1cc(-c2cc(F)cc(F)c2)oc2c1ccc1ccccc12
inhibition [1]: 60% | inhibition [2]: 96% | inhibition [3]: 90% | inhibition [4]: 100% | inhibition [5]: 80% | IC50 ([6]; read-out: IC50): 0.78 nM | inhibition [7]: Active

O=c1cc(-c2cccc(C(F)(F)F)c2)oc2c1ccc1ccccc12
inhibition [1]: 26% | inhibition [2]: 47% | inhibition [3]: 34% | inhibition [4]: 57% | inhibition [5]: 30% | IC50 [6]: Not Active
